Consider 14 compounds from PMC9318862, “Cytotoxic Effects on Breast Cancer Cell Lines of Chalcones Derived from a Natural Precursor and Their Molecular Docking Analysis” (Molecules, 2022).

Like-named read-outs stand apart in the source and are kept apart here.

Test [1] concerns MDA-MB-231 cells. Briefly: Cytotoxic assay, IC50 in MDA-MB-231 cells. The conditions noted are these: Homo sapiens, mean ± SD, read-out: IC50 Cell Lines MDA-MB-231. In kind it is cell-based. As to the method:
(§1) The cytotoxic activity of all the synthesized chalcones was tested against breast cancer cell lines using an MTT cell proliferation assay. All compounds were tested in vitro at 10 and 100 µM using the cell viability assay in MCF-7 for 24 h in normoxia (Table 1). Firstly, the cytotoxic effect of the chalcone compounds modified in ring B and with an unsubstituted ring A was tested (compounds 3–8). […] Secondly, compounds with modifications in the A and B rings (9–13) were tested.
(§2) The cell culture methodology was used with modifications. Three human breast cancer cell lines were used for this study: MCF-7 (ATCC® HTB-22™), ZR-75-1 (ATCC® CRL-1500™), MDA-MB-231 (ATCC® HTB-26™), and the non-tumorigenic MCF-10F (ATCC® CRL-10318™) cell lines. Cells were cultured in specific media according to ATCC recommendations. The incubation condition was established at 37 °C, a complete humid atmosphere, 5% CO2 and 95% O2.
(§3) The cytotoxic effect of the chalcone compounds was assessed in MCF-10F cells in a dose- and time-dependent manner. Cells (1 × 10^4 and 4 × 10^4) cultured under normoxic conditions were seeded in 24-well plates in quadruplicate and incubated for 4 days until 70% confluence. After this incubation period, cells were exposed to concentrations of the synthesized compounds dissolved in ethanol (50%) at concentrations ranging from 0 to 96.8 µg/mL (dissolved in 0.5% DMSO). Doxorubicin was used as the control drug, and for all data a p < 0.05 value was considered statistically significant. Cell viability was assessed using a neutral red uptake assay after 24 h of treatment.

The subject of test [2] is MCF-10F cells. The experiment in a line: Cytotoxic assay, IC50 in non-tumorigenic MCF-10F cells. Format: cell-based, human. The conditions noted are these: MCF-10F non-tumorigenic cells, mean ± SD, read-out: IC50 Cell Lines MCF-10F. As to the method: as §2, §3
The subject of test [3] is MCF-7 cells. Briefly: Cell viability of MCF-7 cells after treatment at 10 and 100 µM (MTT cell proliferation assay, 24 h, normoxia). Format: cell-based. The conditions noted are these: Homo sapiens, mean ± SD; for viability at 10 µM: MCF7, 10 µM; for viability at 100 µM: MCF7, 100 µM. The procedure:
as §1
The cell culture methodology was used with modifications. Three human breast cancer cell lines were used for this study: MCF-7 (ATCC® HTB-22™), ZR-75-1 (ATCC® CRL-1500™), MDA-MB-231 (ATCC® HTB-26™), and the non-tumorigenic MCF-10F (ATCC® CRL-10318™) cell lines. Cells were cultured in specific media according to ATCC recommendations. The incubation condition was established at 37 °C, a complete humid atmosphere, 5% CO2 and 95% […]. […]

Test [4] concerns ZR-75-1 cells. Briefly: Cytotoxic assay, IC50 in ZR-75-1 cells. In kind it is cell-based. The conditions noted are these: Homo sapiens, mean ± SD, read-out: IC50 Cell Lines ZR-75-1.
The subject of test [5] is MCF-7 cells. The experiment in a line: Cytotoxic assay, IC50 in MCF-7 cells. Format: cell-based. The conditions noted are these: Homo sapiens, MCF7, mean ± SD, read-out: IC50 Cell Lines MCF-7.
For test [6], the system named is MCF-7 cells. Further details: method as in PMID 27814565. The note with it: read-out: IC50 on the growth of the MCF-7 cells; cited from earlier work.

Regarding `COc1cc(/C=C/C(=O)c2ccccc2)ccc1O` [Compound 6], the IC50 in test [1] was 52 ± 4.53 µM; in test [2] (Homo sapiens, MCF-10F), 72.6 ± 10.3 µM; in test [4] it was 43.2 ± 6.58 µM; in test [5], 21.6 ± 2.71 µM. In addition, in test [3], the viability at 10 µM is 47 ± 4.9%. Further, the viability at 100 µM in test [3] was 4.9 ± 0.6%.

For the compound `COc1cc(/C=C/C(=O)c2ccc(O)c(CC=C(C)C)c2)ccc1O` [Compound 12, (E)-1-(4-hydroxy-3-(3-methylbut-2-en-1-yl)phenyl)-3-(4-hydroxy-3-methoxyphenyl)prop-2-en-1-one], the IC50 in test [1] came to 6.12 ± 0.84 µM; in test [2] (Homo sapiens, MCF-10F), 95.8 ± 1.52 µM; in test [2], 75.8 ± 11.5 µM; in test [4], 9.4 ± 1.74 µM; in test [5], 4.19 ± 1.04 µM. The same compound had a viability at 10 µM in test [3] of 10.3 ± 0.6%. In test [3], this compound displayed a viability at 100 µM of 3.6 ± 0.9%.

With `COc1cc(OC)c(OC)cc1/C=C/C(=O)c1ccc(O)c(CC=C(C)C)c1` [Compound 13], the IC50 in test [1] is 18.1 ± 1.65 µM; in test [2] (Homo sapiens, MCF-10F), 95.1 ± 1.97 µM; in test [2], 75.1 ± 12 µM; in test [4], 8.75 ± 2.01 µM; in test [5], 3.3 ± 0.92 µM. Moreover, the viability at 10 µM in test [3] stood at 32.4 ± 4.5%. In test [3], the viability at 100 µM worked out at 3.1 ± 0.4%.

Take `COc1cc(OC)c(OC)cc1/C=C/C(=O)c1ccccc1` [Compound 8]: the IC50 in test [1] is above 80 µM; in test [2] (Homo sapiens, MCF-10F), above 80 µM; in test [4] it was above 80 µM; in test [5], above 80 µM. Further, in test [3], the viability at 10 µM worked out at 100 ± 12.6%. In test [3], this compound gave a viability at 100 µM of 94.4 ± 11.6%.

Turning to `COc1ccc(/C=C/C(=O)c2ccccc2)cc1` [Compound 4], the IC50 in test [1], in test [2] (Homo sapiens), in test [4] and in test [5] was above 80 µM throughout. Besides, in test [3], the viability at 10 µM came to 74.5 ± 10.3%. This compound came in with a viability at 100 µM in test [3] of 55.1 ± 5.1%.

For `O=C(/C=C/c1ccc2c(c1)OCO2)c1ccccc1` [Compound 7], the IC50 was above 80 µM in test [1]; above 80 µM in test [2] (Homo sapiens, MCF-10F); above 80 µM in test [4]; above 80 µM in test [5]. For the same compound, the viability at 10 µM in test [3] stood at 43.5 ± 3.4%. In test [3], the viability at 100 µM was determined as 38.6 ± 4.3%.

For the compound `CC(C)=CCc1cc(C(=O)/C=C/c2ccccc2)ccc1O` [Compound 9], the IC50 in test [1] is above 80 µM; in test [2] (Homo sapiens, MCF-10F) it was above 80 µM; in test [4], above 80 µM; in test [5] it was above 80 µM. In test [3], this compound showed a viability at 10 µM of 93.8 ± 7.9%. Also, the viability at 100 µM in test [3] was 82.5 ± 6.1%.

As for `CN(C)c1ccc(/C=C/C(=O)c2ccccc2)cc1` [Compound 5], the IC50 in test [1] is 79.8 ± 9.31 µM; in test [2] (Homo sapiens, MCF-10F), above 80 µM; in test [4], 76.5 ± 12.6 µM; in test [5] it was above 80 µM. The same compound gave a viability at 10 µM in test [3] of 47.6 ± 3.2%. Moreover, in test [3], the viability at 100 µM worked out at 52.4 ± 4.3%.

On to `COc1cccc2c1C(=O)c1c(O)c3c(c(O)c1C2=O)C[C@@](O)(C(=O)CO)C[C@@H]3O[C@H]1C[C@H](N)[C@H](O)[C@H](C)O1` [Doxorubicin, reference compound], for which the IC50 in test [1] was 47.6 ± 5.74 µM; in test [2] (Homo sapiens, MCF-10F), 83.9 ± 8.99 µM; in test [4], 79.8 ± 11 µM; in test [5], 111 ± 8.95 µM. This compound yielded a viability at 10 µM in test [3] of 49.3 ± 2.2%. Further, the viability at 100 µM in test [3] stood at 57.6 ± 2.9%.

Take `C=C(C)C(O)Cc1c(O)ccc(C(=O)/C=C/c2ccc(O)c(CC=C(C)C)c2)c1O` (stereo not shown) [Paratocarpin E]: in test [6], the IC50 was 19.6 µM.

Regarding `O=C(/C=C/c1ccccc1)c1ccccc1` [Compound 3], the IC50 was above 80 µM in test [1]; above 80 µM in test [2] (Homo sapiens, MCF-10F); above 80 µM in test [4]; above 80 µM in test [5]. Further, in test [3], the viability at 10 µM amounted to 81.3 ± 9.4%. This compound gave a viability at 100 µM in test [3] of 65.2 ± 5.7%.

Consider `CC(C)=CCc1cc(C(=O)/C=C/c2ccc(N(C)C)cc2)ccc1O` [Compound 11], for which the IC50 in test [1] was 72.3 ± 2.33 µM; in test [2] (Homo sapiens, MCF-10F), 78.4 ± 21.3 µM; in test [4] it was 78.2 ± 6.87 µM; in test [5], above 80 µM. The same compound returned a viability at 10 µM in test [3] of 42 ± 4.3%. The same compound yielded a viability at 100 µM in test [3] of 42.4 ± 3.9%.

Consider `COc1ccc(/C=C/C(=O)c2ccc(O)c(CC=C(C)C)c2)cc1` [Compound 10], for which the IC50 is 78 ± 4.34 µM in test [1]; above 80 µM in test [2] (Homo sapiens, MCF-10F); above 80 µM in test [4]; above 80 µM in test [5]. In test [3], the viability at 10 µM was 73.7 ± 6.7%. In addition, the viability at 100 µM in test [3] was 62.3 ± 7.6%.

On to `CC(=O)c1ccc(O)c(CC=C(C)C)c1` [Compound 1b], for which the IC50 was 74 ± 8.72 µM in test [1]; 79.5 ± 9.9 µM in test [2] (Homo sapiens, MCF-10F); 61.6 ± 14.1 µM in test [4]; 79.4 ± 12.2 µM in test [5].

A word on the IC50: it is the point on the concentration scale where inhibition reaches its midpoint. As usually defined, the viability is the share of living cells, or the viability signal relative to a control. Low readings indicate more harm to the cells, high ones less harm to the cells.
